Assay results from patent US20150105252A1, “SUBSTITUTED PYRAZOLES AS HERBICIDES” (E I DU PONT DE NEMOURS AND COMPANY, priority 2013, published 2015).

Assays:
Experiment in all cases: Test F preemergence
[1] = test system: soybean; type: in vivo, Glycine max
Text: (§1) Seeds of plant species selected from corn (Zea mays), soybean (Glycine max), velvetleaf (Abutilon theophrasti), lambsquarters (Chenopodium album), wild poinsettia (Euphorbia heterophylla), pigweed, palmer (palmer pigweed, Amaranthus palmeri), common waterhemp (Amaranthus rudis), surinam grass (Brachiaria decumbens), large crabgrass (Digitaria sanguinalis), crabgrass, Brazil (Brazilian crabgrass, Digitaria horizontalis), fall panicum (Panicum dichotomiflorum), giant foxtail (Setaria faberii), green foxtail (Setaria viridis), goosegrass (Eleusine indica), johnsongrass (Sorghum halepense), common ragweed (Ambrosia elation), barnyardgrass (Echinochloa crus-galli), southern sandbur (Cenchrus echinatus), arrowleaf sida (Sida rhombifolia), Italian ryegrass (Lolium multiflorum), dayflower, VA (Virginia (VA) dayflower, Commelina virginica), field bindweed (Convolvulus arvensis), cocklebur (common cocklebur, Xanthium strumarium), morningglory (Ipomoea coccinea), nightshade (eastern black nightshade, Solanum ptycanthum), kochia (Kochia scoparia), yellow nutsedge (Cyperus esculentus), and hairy beggarticks (Bidens pilosa), were planted into a silt loam soil and treated preemergence with test chemicals formulated in a non-phytotoxic solvent mixture which included a surfactant.
(§2) At the same time, plants from these crop and weed species and also horseweed (Canada horseweed, Conyza canadensis), smartweed (ladysthumb smartweed, Polygonum persicaria), waterhemp_RES1, (ALS & Triazine resistant common waterhemp, Amaranthus rudis), and waterhemp_RES2, (ALS & HPPD resistant common waterhemp, Amaranthus rudis) were treated with postemergence applications of test chemicals formulated in the same manner. Plants ranged in height from 2 to 18 cm for postemergence treatments (1- to 4-leaf stage). Treated plants and controls were maintained in a greenhouse for 14 to 21 days, after which time all species were compared to controls and visually evaluated. Plant response ratings, summarized in Table F, are based on a scale of 0 to 100 where 0 is no effect and 100 is complete control. A dash (-) response means no test result.

[2] = test system: common waterhemp; type: in vivo, Amaranthus rudis
Text: as §1, §2

[3] = test system: giant foxtail; type: in vivo, Setaria faberii
Text: as §1, §2

[4] = test system: goosegrass; type: in vivo, Eleusine indica
Text: as §1, §2

[5] = test system: southern sandbur; type: in vivo, Cenchrus echinatus
Text: as §1, §2

[6] = test system: dayflower, VA; type: in vivo, Commelina virginica
Text: as §1, §2

[7] = test system: kochia; type: in vivo, Kochia scoparia
Text: as §1, §2

[8] = test system: yellow nutsedge; type: in vivo, Cyperus esculentus
Text: as §1, §2

[9] = Preemergence, 31 g ai/ha, scale 0 to 100
[10] = Preemergence, 62 g ai/ha, scale 0 to 100
[11] = preemergence, 8 g ai/ha, scale 0 to 100, 100 is complete control
[12] = Preemergence, 125 g ai/ha, scale 0 to 100
[13] = preemergence, 16 g ai/ha, scale 0 to 100, 100 is complete control
[14] = Preemergence, 16 g ai/ha, scale 0 to 100
[15] = Preemergence, 250 g ai/ha, scale 0 to 100

SMILES | Plant response rating, Soybean [1, 10] | Plant response rating, Common Waterhemp [2, 10] | Plant response rating, Common Waterhemp [2, 12] | Plant response rating, Common Waterhemp [2, 13] | Plant response rating, Giant Foxtail [3, 10] | Plant response rating, Giant Foxtail [3, 12] | Plant response rating, Giant Foxtail [3, 13] | Plant response rating, Goosegrass [4, 10] | Plant response rating, Goosegrass [4, 12] | Plant response rating, Goosegrass [4, 13] | Plant response rating, Southern Sandbur [5, 10] | Plant response rating, Southern Sandbur [5, 12] | Plant response rating, Southern Sandbur [5, 13] | Plant response rating, Dayflower, VA [6, 10] | Plant response rating, Dayflower, VA [6, 12] | Plant response rating, Dayflower, VA [6, 13] | Plant response rating, Kochia [7, 10] | Plant response rating, Kochia [7, 12] | Plant response rating, Yellow Nutsedge [8, 10] | Plant response rating, Yellow Nutsedge [8, 12] | other results
CCc1cc(-c2ccc(C(F)(F)F)cc2)nn1Cc1ccnc(C(F)(F)F)c1 [Compound 110] | 0 | 100 | 100 | 65 | 95 | 98 | 40 | 60 | 95 | 15 | 35 | 75 | 20 | 10 | 65 | 0 | 80 | 90 | 0 | 0 | Plant response rating, Soybean [1, 9]: 15; Plant response rating, Soybean [1, 11]: 0; Plant response rating, Common Waterhemp [2, 9]: 85; Plant response rating, Common Waterhemp [2, 11]: 65; Plant response rating, Giant Foxtail [3, 9]: 70; Plant response rating, Giant Foxtail [3, 11]: 25; Plant response rating, Goosegrass [4, 9]: 35; Plant response rating, Goosegrass [4, 11]: 0; Plant response rating, Southern Sandbur [5, 9]: 20; Plant response rating, Southern Sandbur [5, 11]: 0; Plant response rating, Dayflower, VA [6, 9]: 5; Plant response rating, Dayflower, VA [6, 11]: 0; Plant response rating, Kochia [7, 9]: 70; Plant response rating, Kochia [7, 11]: 20; Plant response rating, Kochia [7, 13]: 25; Plant response rating, Yellow Nutsedge [8, 9]: 0; Plant response rating, Yellow Nutsedge [8, 11]: 0; Plant response rating, Yellow Nutsedge [8, 13]: 0
CCCc1cc(C(=O)NC(C)C)nn1Cc1cc(C(F)(F)F)nn1C [Compound 201] |  | 75 | 80 | 5 | 75 | 75 | 0 | 50 | 95 | 0 | 0 | 30 | 0 | 0 | 35 | 0 | 90 | 100 | 0 | 0 | Plant response rating, Soybean [1, 14]: 0; Plant response rating, Soybean [1, 12]: 40; Plant response rating, Soybean [1, 15]: 40; Plant response rating, Soybean [1, 13]: 0; Plant response rating, Common Waterhemp [2, 14]: 0; Plant response rating, Common Waterhemp [2, 15]: 100; Plant response rating, Giant Foxtail [3, 15]: 100; Plant response rating, Goosegrass [4, 15]: 95; Plant response rating, Southern Sandbur [5, 15]: 75; Plant response rating, Dayflower, VA [6, 15]: 65; Plant response rating, Kochia [7, 15]: 100; Plant response rating, Kochia [7, 13]: 0; Plant response rating, Yellow Nutsedge [8, 15]: 25; Plant response rating, Yellow Nutsedge [8, 13]: 0
CCc1cc(C(=O)NCC(F)(F)F)nn1Cc1ccnc(Br)c1 [Compound 224] | 25 | 100 | 100 |  | 40 | 75 |  | 35 | 60 |  | 5 | 35 |  | 0 | 40 |  | 90 | 100 | 0 | 35 | Plant response rating, Soybean [1, 12]: 20; Plant response rating, Soybean [1, 15]: 50; Plant response rating, Common Waterhemp [2, 15]: 100; Plant response rating, Giant Foxtail [3, 15]: 98; Plant response rating, Goosegrass [4, 15]: 95; Plant response rating, Southern Sandbur [5, 15]: 15; Plant response rating, Dayflower, VA [6, 15]: 85; Plant response rating, Kochia [7, 15]: 100; Plant response rating, Yellow Nutsedge [8, 15]: 35
